Structures are written as SMILES. Values after ≈ are worked out from the molar mass of the structure shown. A value given as a limit tells only on which side of the number the result lay.

Three molecules from patent US7713965B2, “7-substituted 3-carboxy-oxadiazino-quinolone derivatives, their preparation and their application as anti-bacterials” (Vetoquinol SA, priority 2008, dated 2010) can be followed below.

What all share (format): cell-based
Assay [1] deals with Mannheimia haemolytica (s = susceptible). The experiment in a line: MIC determination by microdilution in liquid medium, Man hae s. Particulars: susceptible strain.
The subject of assay [2] is Mannheimia haemolytica (r = resistant). The experiment in a line: MIC determination by microdilution in liquid medium, Man hae r. The note with it: resistant strain. (Broth dilution looks for growth in wells or tubes with falling amounts of substance.)
In assay [3] the test system is Bordetella bronchiseptica. The assay is described as follows: MIC determination by microdilution in liquid medium, Bor bron.
In assay [4] the test system is Pseudomonas aeruginosa (s = susceptible). The experiment in a line: MIC determination by microdilution in liquid medium, Pse aer s. Particulars: susceptible strain.
Assay [5] has as its system Pseudomonas aeruginosa (r = resistant). The assay is described as follows: MIC determination by microdilution in liquid medium, Pse aer r. The note with it: read-out: MIC Pse aer r.
Another assay relates to Escherichia coli. The assay is described as follows: MIC determination by microdilution in liquid medium, E coli.
Another assay has as its system Streptococcus uberis. The experiment in a line: MIC determination by microdilution in liquid medium, Str ube.
Assay [6] concerns Staphylococcus aureus (s = susceptible). The experiment in a line: MIC determination by microdilution in liquid medium, Sta aur s. Particulars: susceptible strain.
The test system of assay [7] is Staphylococcus aureus (r = resistant). The assay is described as follows: MIC determination by microdilution in liquid medium, Sta aur r. Particulars: read-out: MIC Sta aur r.
A further assay concerns Mycoplasma bovis. The experiment in a line: MIC determination by microdilution in liquid medium, Myc bov. The note with it: Mycoplasmopsis bovis.
A further assay has as its system Clostridium perfringens. The experiment in a line: microbe, parasite or virus in culture. Particulars: read-out: MIC Clo per.
The next assay concerns E. coli ATCC 25922. The experiment in a line: MIC determination by microdilution in liquid medium, E. coli ATCC 25922. The note with it: Escherichia coli, ATCC25922.
Another assay relates to E. faecalis ATCC 29212. The assay is described as follows: MIC determination by microdilution in liquid medium, E. faecalis ATCC 29212. Particulars: Enterococcus faecalis, ATCC29212, read-out: MIC E. fae-calis ATCC 29212.
The subject of the next assay is M. bovirhinis. The assay is described as follows: MIC determination by microdilution in liquid medium, M. bovirhinis. Particulars: Mycoplasma.

Consider `CN1COc2c(N3C[C@@H](N)C(C)(C)C3)c(F)cc3c(=O)c(C(=O)O)cn1c23` [Example 34, 9-((S)-4-Amino-3,3-dimethyl-pyrrolidin-1-yl)-8-fluoro-3-methyl-6-oxo-2,3-dihydro-6H-1-oxa-3,3a-diaza-phenalene-5-carboxylic acid], for which the MIC in assay [1] was 0.03 µg/mL (≈ 0.0797 µM); in assay [2] it was 8 µg/mL (≈ 21.3 µM); in assay [3], 0.5 µg/mL (≈ 1.33 µM); in [4], 0.5 µg/mL (≈ 1.33 µM); in [5] it was 8 µg/mL (≈ 21.3 µM); in the assay with Escherichia coli, 0.03 µg/mL (≈ 0.0797 µM). Also, the MIC was 0.12 µg/mL (≈ 0.319 µM) with Streptococcus uberis; less than 0.03 µg/mL in assay [6]; 2 µg/mL (≈ 5.31 µM) in assay [7]; 0.5 µg/mL (≈ 1.33 µM) in the assay with Mycoplasma bovis; less than 0.03 µg/mL with Clostridium perfringens; 0.03 µg/mL (≈ 0.0797 µM) against E. coli ATCC 25922. Further, the figures for the MIC with E. faecalis ATCC 29212 and against M. bovirhinis were 0.25 to 0.5 µg/mL (≈ 0.664 to 1.33 µM) and 0.12 µg/mL (≈ 0.319 µM), respectively.
On to `CN1COc2c(N3CCC(C(O)c4nccs4)C3)c(F)cc3c(=O)c(C(=O)O)cn1c23` (stereo not drawn) [Example 38, 8-Fluoro-9-[3-(hydroxy-thiazol-2-yl-methyl)-pyrrolidin-1-yl]-3-methyl-6-oxo-2,3-dihydro-6H-1-oxa-3,3a-diaza-phenalene-5-carboxylic acid], for which the MIC in assay [1] amounted to 0.03 µg/mL (≈ 0.0672 µM); in assay [2], 16 µg/mL (≈ 35.8 µM); in [3] it was 1 µg/mL (≈ 2.24 µM); in assay [4] it was 4 µg/mL (≈ 8.96 µM); in [5], 32 µg/mL (≈ 71.7 µM); in the assay on Escherichia coli, 0.12 µg/mL (≈ 0.269 µM). Moreover, the MIC against Streptococcus uberis was less than 0.03 µg/mL; in [6] it was 0.06 µg/mL (≈ 0.134 µM); in assay [7], 2 µg/mL (≈ 4.48 µM); in the assay on Mycoplasma bovis, 0.12 µg/mL (≈ 0.269 µM); in the assay on Clostridium perfringens it was less than 0.03 µg/mL; against E. coli ATCC 25922, 0.12 µg/mL (≈ 0.269 µM). Moreover, the MIC in the assay with E. faecalis ATCC 29212 was 0.06 µg/mL (≈ 0.134 µM); in the assay on M. bovirhinis, 0.25 µg/mL (≈ 0.56 µM).
On to `CN1COc2c(N3CCC(C(N)c4nccs4)C3)c(F)cc3c(=O)c(C(=O)O)cn1c23` (stereo not drawn) [Example 39, 9-[3-(Amino-thiazol-2-yl-methyl)-pyrrolidin-1-yl]-8-fluoro-3-methyl-6-oxo-2,3-dihydro-6H-1-oxa-3,3a-diaza-phenalene-5-carboxylic acid], for which the MIC in assay [1] was determined as 0.03 µg/mL (≈ 0.0673 µM); in assay [2], 16 µg/mL (≈ 35.9 µM); in [3] it was 0.5 µg/mL (≈ 1.12 µM); in assay [4], 2 µg/mL (≈ 4.49 µM); in [5] it was 16 µg/mL (≈ 35.9 µM); in the assay on Escherichia coli, 0.25 µg/mL (≈ 0.561 µM). Besides, the MIC is 0.12 µg/mL (≈ 0.269 µM) against Streptococcus uberis; no more than 0.03 µg/mL in [6]; 2 µg/mL (≈ 4.49 µM) in [7]; 0.12 µg/mL (≈ 0.269 µM) against Mycoplasma bovis; no more than 0.03 µg/mL with Clostridium perfringens; 0.03 to 0.12 µg/mL (≈ 0.0673 to 0.269 µM) with E. coli ATCC 25922. Also, the MIC with E. faecalis ATCC 29212 was found to be 0.12 µg/mL (≈ 0.269 µM); in the assay with M. bovirhinis, 0.06 µg/mL (≈ 0.135 µM).
